# Results: patent US10988459B2 (priority 2015, dated 2021)
# Molecular target: human RIP1 kinase domain (2-375) (Homo sapiens (Human), UniProt Q13546)
# Assay: biochemical
# Assay type: biochemical
# Settings: RIP1 Ki
# Experimental: Example 794: RIP1 Kinase Inhibition Assays (Biochemical Assay)
# The compounds of the present invention were tested for their capacity to inhibit RIP1K activity as described below.
# The ability of the receptor interacting protein kinase (RIPK1) to catalyze the hydrolysis of adenosine-5′-triphosphate (ATP) is monitored using the Transcreener ADP (adenosine-5′-diphosphate) assay (BellBrook Labs). Purified human RIP1 kinase domain (2-375) (50 nM) derived from a baculovirus-infected insect cell expression system is incubated with test compounds for 2 hours in 50 mM Hepes buffer (pH 7.5) containing 30 mM MgCl2, 1 mM dithiothreitol, 50 uM ATP, 0.002% Brij-35, and 0.5% dimethyl sulfoxide (DMSO). […] The tracer bound to the antibody is displaced by the ADP generated during the RIP1K reaction, which causes a decrease in fluorescence polarization that is measured by laser excitation at 633 nm with a FP microplate reader M1000. Fractional activity was plotted against test article concentration. Using Genedata Screener software (Genedata; Basel, Switzerland), the data were fit to the tight-binding apparent inhibition constant (Ki^app) Morrison equation [Williams, J. W. and Morrison, J. F. (1979) The kinetics of reversible tight-binding inhibition. Methods Enzymol 63: 437-67]. The following equation was used to calculate fractional activity and Ki^app:
# [formula] where [E]T and [I]T are the total concentrations of active enzyme and test article, respectively.
# “Method” in the first column of each table refers to the synthetic method(s) used to prepare each compound as shown in the Examples above. In certain examples, chiral column retention times (min) are provided for certain stereoisomers.
# human RIP1 kinase domain (2-375), sequence (Q13546 2-375): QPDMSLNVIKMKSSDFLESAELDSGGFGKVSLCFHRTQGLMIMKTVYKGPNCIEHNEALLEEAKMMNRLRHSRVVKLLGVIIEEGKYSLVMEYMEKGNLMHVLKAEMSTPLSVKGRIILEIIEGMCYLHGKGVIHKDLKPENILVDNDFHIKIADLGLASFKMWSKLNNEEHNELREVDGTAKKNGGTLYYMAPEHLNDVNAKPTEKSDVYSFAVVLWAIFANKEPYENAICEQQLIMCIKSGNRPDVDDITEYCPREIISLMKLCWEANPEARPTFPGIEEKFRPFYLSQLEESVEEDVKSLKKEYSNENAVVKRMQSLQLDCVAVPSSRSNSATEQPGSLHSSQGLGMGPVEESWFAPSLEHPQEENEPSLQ
row,Ki,SMILES
1,4.9 nM,"CN1C(=O)[C@@H](NC(=O)c2n[nH]c3ccc(C(F)(F)F)cc23)COc2ccccc21 [Example 115, (S)—N-(5-methyl-4-oxo-2,3,4,5-tetrahydrobenzo[b][1,4]oxazepin-3-yl)-5-(trifluoromethyl)-1H-indazole-3-carboxamide]"

# Same assay, conditions: Table 1; apparent Ki (Morrison tight-binding fit); 50 nM RIP1 kinase domain, 50 uM ATP, 2 hours incubation; read-out: RIP1 Ki
row,SMILES,Ki
1,"O=C(N[C@H]1COc2[nH]ncc2NC1=O)c1ccn(Cc2ccc(F)c(F)c2)n1 [Example 16, (S)-1-(3,4-difluorobenzyl)-N-(5-oxo-4,5,6,7-tetrahydro-1H-pyrazolo[3,4-b][1,4]oxazepin-6-yl)-1H-pyrazole-3-carboxamide]",> 10000 nM
2,"CN1C(=O)[C@@H](NC(=O)c2n[nH]c3c2CC(n2cccn2)CC3)COc2ccccc21 (stereo partly drawn) [Example 20, N—((S)-5-methyl-4-oxo-2,3,4,5-tetrahydrobenzo[b][1,4]oxazepin-3-yl)-5-(1H-pyrazol-1-yl)-4,5,6,7-tetrahydro-1H-indazole-3-carboxamide]",745 nM

# Same assay, conditions: Table 5; apparent Ki (Morrison tight-binding fit); 50 nM RIP1 kinase domain, 50 uM ATP, 2 hours incubation; read-out: Ki
row,Ki,SMILES
1,5 nM,"CC(C)[C@@H]1CCCc2nc(C(=O)N[C@H]3COc4cc(F)cc(F)c4NC3=O)nn21 (single isomer, unassigned) [Example 715]"

# Same assay, conditions: human RIP1 kinase domain (2-375), 50 uM ATP, 2 hours incubation, Transcreener ADP assay; read-out: RIP1 Ki
row,Ki,SMILES
1,110 nM,"CN1C(=O)C(NC(=O)c2ncn(Cc3ccccc3)n2)CCn2nc3c(c21)CCCC3 (stereo not shown) [Example 136, 1-benzyl-N-(1-methyl-2-oxo-2,3,4,5,8,9,10,11-octahydro-1H-[1,3]diazepino[1,2-b]indazol-3-yl)-1H-1,2,4-triazole-3-carboxamide]"
2,262 nM,CC1CCn2cnc(C(=O)N[C@H]3COc4ccccc4N(C)C3=O)c2C1 (stereo partly shown) [Example 190]
3,65.8 nM,"CN1C(=O)C(NC(=O)c2ncn(Cc3ccccc3)n2)CCn2nc3c(c21)CSC3 (stereo not shown) [Example 142, 1-benzyl-N-(1-methyl-2-oxo-1,2,3,4,5,10-hexahydro-8H-thieno[3′,4′:3,4]pyrazolo[1,5-a][1,3]diazepin-3-yl)-1H-1,2,4-triazole-3-carboxamide]"
4,16.2 nM,"CN1C(=O)[C@@H](NC(=O)c2ncn(Cc3ccccc3)n2)CCn2nc(C3CC3)cc21 [Example 171, (S)-1-benzyl-N-(2-cyclopropyl-4-methyl-5-oxo-5,6,7,8-tetrahydro-4H-pyrazolo[1,5-a][1,3]diazepin-6-yl)-1H-1,2,4-triazole-3-carboxamide]"
5,189 nM,"CN1C(=O)[C@@H](NC(=O)c2cc(Oc3ccccc3)ccn2)CCn2nccc21 [Example 101, (S)—N-(4-methyl-5-oxo-5,6,7,8-tetrahydro-4H-pyrazolo[1,5-a][1,3]diazepin-6-yl)-4-phenoxypicolinamide]"

# Same assay, conditions: human RIP1 kinase domain (2-375), Transcreener ADP assay, 50 uM ATP, 2 hours incubation; read-out: RIP1 Ki
row,Ki,SMILES
1,67 nM,"CN1C(=O)[C@@H](NC(=O)c2ncn(Cc3ccc(F)c(F)c3)n2)CCn2nc([C@@H]3CC3(F)F)cc21 [Example 321, 1-(3,4-difluorobenzyl)-N—((S)-2-((S)-2,2-difluorocyclopropyl)-4-methyl-5-oxo-5,6,7,8-tetrahydro-4H-pyrazolo[1,5-a][1,3]diazepin-6-yl)-1H-1,2,4-triazole-3-carboxamide]"
2,1600 nM,"CN1C(=O)C(NC(=O)c2ncn(CCC(F)(F)F)n2)CCn2nc(C3CC3)cc21 (stereo not shown) [Example 258, N-(2-cyclopropyl-4-methyl-5-oxo-5,6,7,8-tetrahydro-4H-pyrazolo[1,5-a][1,3]diazepin-6-yl)-1-(3,3,3-trifluoropropyl)-1H-1,2,4-triazole-3-carboxamide]"
3,511 nM,"Cc1cc2n(n1)CC[C@H](NC(=O)c1ncn(CC3CC3(F)F)n1)C(=O)N2C (stereo partly drawn) [Example 262, 1-((2,2-difluorocyclopropyl)methyl)-N—((S)-2,4-dimethyl-5-oxo-5,6,7,8-tetrahydro-4H-pyrazolo[1,5-a][1,3]diazepin-6-yl)-1H-1,2,4-triazole-3-carboxamide]"

# Same assay, conditions: tight-binding apparent inhibition constant; human RIP1 kinase domain (2-375) 50 nM, 50 uM ATP, 2 hours; read-out: Ki
row,Ki,SMILES
1,57 nM,"Cc1cc2n(n1)CC[C@H](NC(=O)c1ncc3cnn(-c4ccccc4)c3n1)C(=O)N2C [Example 540, 1-phenyl-N-[(6S)-2,4-dimethyl-5-oxo-7,8-dihydro-6H-pyrazolo[1,5-a][1,3]diazepin-6-yl]pyrazolo[3,4-d]pyrimidine-6-carboxamide]"
2,8.14 nM,"Cc1cc(F)c2c(c1)OC[C@H](NC(=O)c1nc3n(n1)[C@H](C(F)(F)F)CCC3)C(=O)N2 (single isomer, unassigned) [Example 428]"
3,8.5 nM,"CN1C(=O)[C@@H](NC(=O)c2ncn(Cc3ccccc3)n2)CCn2nc(C[C@H]3CC3(F)F)cc21 [Example 547, 1-benzyl-N-(6S)-4-methyl-5-oxo-2-[(1 S)-2,2-difluorocyclopropylmethyl]-7,8-dihydro-6H-pyrazolo[1,5-a][1,3]diazepin-6-yl-1,2,4-triazole-3-carboxamide]"
4,28 nM,"Cc1cc2n(n1)CC[C@H](NC(=O)c1nc3n(n1)CC[C@H]3c1ccccc1)C(=O)N2C (racemic) [Example 575, (7S)-7-phenyl-N-[(6S)-2,4-dimethyl-5-oxo-7,8-dihydro-6H-pyrazolo[1,5-a][1,3]diazepin-6-yl]-6,7-dihydro-5H-pyrrolo[1,2-b][1,2,4]triazole-2-carboxamide]"
5,4.8 nM,"Cc1cc(F)c2c(c1)OC[C@H](NC(=O)c1ncc3cnn(C(C)C)c3n1)C(=O)N2 [Example 606, 1-isopropyl-N-[(3S)-6-fluoro-8-methyl-4-oxo-3,5-dihydro-2H-1,5-benzoxazepin-3-yl]pyrazolo[3,4-d]pyrimidine-6-carboxamide]"
6,694 nM,"CN1C(=O)[C@@H](NC(=O)c2nc3n(n2)CCO[C@H]3c2ccccc2)COc2ccccc21 (racemic) [Example 695, rac-(8S)-8-phenyl-N-[rac-(3S)-5-methyl-4-oxo-2,3-dihydro-1,5-benzoxazepin-3-yl]-6,8-dihydro-5H-[1,2,4] triazolo[5,1-c][1,4]oxazine-2-carboxamide]"
7,570 nM,"Cc1cc2n(n1)CC[C@H](NC(=O)c1ncc3cnn(C4CCOCC4)c3n1)C(=O)N2C [Example 559, N-[(6S)-2,4-dimethyl-5-oxo-7,8-dihydro-6H-pyrazolo[1,5-a][1,3]diazepin-6-yl]-1-tetrahydropyran-4-yl-pyrazolo[3,4-d]pyrimidine-6-carboxamide]"
8,660 nM,"CN1C(=O)[C@@H](NC(=O)c2nc3n(n2)CCO[C@@H]3c2ccccc2)COc2ccccc21 [Example 517, (8R)-8-phenyl-N-[(3S)-5-methyl-4-oxo-2,3-dihydro-1,5-benzoxazepin-3-yl]-6,8-dihydro-5H-[1,2,4]triazolo[5,1-c][1,4]oxazine-2-carboxamide]"
9,8.1 nM,"CN1C(=O)[C@@H](NC(=O)c2nc3c(-c4ccccc4)cccn3n2)COc2ccccc21 [Example 568, 8-phenyl-N-[(3S)-5-methyl-4-oxo-2,3-dihydro-1,5-benzoxazepin-3-yl]-[1,2,4]triazolo[1,5-a]pyridine-2-carboxamide]"
10,42.3 nM,"CN1C(=O)[C@@H](NC(=O)c2nc3n(n2)C(c2ccccc2)CCC3)COc2ccccc21 (stereo partly drawn) [Example 376, N—((S)-5-methyl-4-oxo-2,3,4,5-tetrahydrobenzo[b][1,4]oxazepin-3-yl)-5-phenyl-5,6,7,8-tetrahydro-[1,2,4]triazolo[1,5-a]pyridine-2-carboxamide]"
11,6.62 nM,"CCC[C@H]1CCCc2nc(C(=O)N[C@H]3COc4cc(C)cc(F)c4NC3=O)nn21 (single isomer, unassigned) [Example 439]"
12,4.72 nM,"CC(C)c1cccc2nc(C(=O)N[C@H]3COc4ccccc4N(C)C3=O)nn12 [Example 406, (S)-5-isopropyl-N-(5-methyl-4-oxo-2,3,4,5-tetrahydrobenzo[b][1,4]oxazepin-3-yl)-[1,2,4]triazolo[1,5-a]pyridine-2-carboxamide]"
13,6 nM,"Cc1cc2n(n1)CC[C@H](NC(=O)c1ncn(Cc3ccccc3Cl)n1)C(=O)N2C [Example 520, 1-[(2-chlorophenyl)methyl]-N-(6S)-2,4-dimethyl-5-oxo-7,8-dihydro-6H-pyrazolo[1,5-a][1,3]diazepin-6-yl-1,2,4-triazole-3-carboxamide]"
14,46 nM,CN1C(=O)[C@@H](NC(=O)c2ncn(Cc3ccc(F)cc3)n2)CCn2nc(C(F)(F)F)cc21 [Example 525]
15,301 nM,"CN1C(=O)[C@@H](NC(=O)c2nnc(Cc3ccccc3)[nH]2)CCn2nc3c(c21)CS(=O)(=O)C3 [Example 453, (S)-5-Benzyl-N-(1-methyl-9,9-dioxido-2-oxo-1,2,3,4,5,10-hexahydro-8H-thieno[3′,4′:3,4]pyrazolo[1,5-a][1,3]diazepin-3-yl)-4H-1,2,4-triazole-3-carboxamide]"
16,18 nM,"O=C(N[C@H]1CCc2cc(F)cc(F)c2NC1=O)c1ncc2c(n1)C1(CCCC1)OC2 [Example 637, N-[(3S)-7,9-difluoro-2-oxo-1,3,4,5-tetrahydro-1-benzazepin-3-yl]spiro[5H-furo[3,4-d]pyrimidine-7,1′-cyclopentane]-2-carboxamide]"
